One data set relates to HIV-1 92UG029 (A-X4). Put plainly: PBMC antiviral assay (RT activity), HIV-1 92UG029. The data set is classed as cell-based. Particulars: Human immunodeficiency virus 1, PBMC, 168 h; PHA-P-activated PBMCs, 125 TCID50, day 7, RT activity. How it is done: (§1) In order to confirm antiretroviral activity of the compounds, using a cell model closer to the pathophysiology, Peripheral Blood Mononuclear Cells (PBMCs) were separated from a buffy-coat from healthy HIV-, HCV-, HBV-seronegative blood donors by Ficoll-Hypaque density gradient centrifugation. The PBMCs were activated by incubation with 1 μg/ml phytohemagglutinin-P (PHA-P; Difco Laboratories) for three days in RPMI 1640 medium supplemented with 10% heat-inactivated fetal calf serum (FCS, +56 ◦C for 45 min), 2mM l-glutamine and a 1% antibiotic cocktail (penicillin, streptomycin, neomycin). After this mitogen activation, PBMCs were cultivated in the same culture medium supplemented with recombinant human interleukin-2 (rHuIL-2; 20 IU/mL) and treated and/or infected. […] All these viruses were amplified in vitro with PHA-P-activated blood mononuclear cells and 50% tissue culture infectious doses (TCID50) were calculated using Kärber’s formula [37], after limited-dilution titration. […] Viral replication was measured by quantifying reverse transcriptase (RT) activity in the cell culture supernatants using the Lenti RT Activity Kit (Cavidi) and AZT was used as reference anti-HIV-1 molecule. EC50 were then calculated and expressed in μM.

Data set [1] relates to HIV-1 reference strains and clinical isolates. Put plainly: PBMC antiviral assay, whole panel of strains. Format: cell-based.
Procedure: The PBMCs were activated by incubation with 1 μg/ml phytohemagglutinin-P (PHA-P; Difco Laboratories) for three days in RPMI 1640 medium supplemented with 10% heat-inactivated fetal calf serum (FCS, +56 ◦C for 45 min), 2mM l-glutamine and a 1% antibiotic cocktail (penicillin, streptomycin, neomycin). After this mitogen activation, PBMCs were cultivated in the same culture medium supplemented with recombinant human interleukin-2 (rHuIL-2; 20 IU/mL) and treated and/or infected. PBMCs were infected either with the reference lymphotropic (-X4) HIV-1 LAI strain [35], the reference macrophage-tropic (-R5) HIV-1 BaL strain [36] or with 4 different clinical isolates (subtype A, B or C). All these viruses were amplified in vitro with PHA-P-activated blood mononuclear cells and 50% tissue culture infectious doses (TCID50) were calculated using Kärber’s formula [37], after limited-dilution titration. […] Cell supernatants were collected at day 7 post-infection and stored at -20°C. Viral replication was measured by quantifying reverse transcriptase (RT) activity in the cell culture supernatants using the Lenti RT Activity Kit (Cavidi) and AZT was used as reference anti-HIV-1 molecule. EC50 were then calculated and expressed in μM. […]
The test system of the next data set is HIV-1 LAI. Put plainly: MAGI assay, HIV-1 LAI. As to conditions: Human immunodeficiency virus 1, MAGI cells. The data set is classed as cell-based. How it is done:
Briefly, target cells (HeLa CD4/CCR5-LTR/β-gal; 10^4/well) were plated in 96-well flat microtiter culture plates. […] The test drugs were added initially and viruses were immediately inoculated onto the cells. Forty-eight hours after viral exposure, all blue cells in each well were counted. The cytotoxicity of the compound was determined by the MTT method as previously described. All experiments were performed in triplicate and AZT was used as reference anti-HIV-1 molecule.

In data set [2] the test system is Tim-3 expression on CD4+ and CD8+ T cells. Kind of data set: Flow cytometry of Tim-3 on T cells of HIV-1-infected PBMCs. Format: cell-based, human. As to conditions: day 9 post infection. From the text: PBMCs (1 x 10^6/ml) were infected with 100 TCID50 of various HIV-1 strains (92UG037: primary R5-tropic strain; YU2B and BaL: R5-tropic lab strains, 93BR020: dual-tropic primary isolate; NL4-3: X4-tropic lab strain) and simultaneously treated with a range of concentrations of IND02-trimer in 24-well plates (Greiner) in duplicates. Cells were washed, fixed (4% paraformaldehyde) and stained on several days post infection (1-4-9-13-19) using the following mAbs against PD-1-Brilliant Violet 421, CD3-FITC, Tim-3-PE, CD4-PE-Cy7 (all from Biolegend) and CD8-APC (Miltenyi). Multicolor flow cytometric analyses were performed on a FACS Verse (BD Biosciences).
Fig 5 Reduction of Tim-3 (left) and PD1 (right) expression on HIV-1 and IND02-trimer-treated CD8^+ (A) and CD4^+ (B) T cells. Stimulated PBMCs were simultaneously incubated with 0.4 to 40 μg/ml (0.46–46.3 μM) IND02-trimer and HIV-1 (92UG037, BaL, YU2b, 93BR020 or NL4-3). Up-regulation of Tim-3 (left) and PD-1 (right) on CD8^+ (A) and CD4^+ (B) T cells was impeded by the IND02-trimer, as shown by multicolour FACS analyses of live T cells on day 9 post co-treatment. Experiments were repeated in 4–5 independent experiments with cells from different donors and statistical differences were analyzed by the GraphPad prism software using the unpaired student’s t-test (2-tailed).
(In general: A flow cytometer gives signals particle by particle.)

Data set [3] is described as follows: Stability studies in formulations. Format: physicochemical. Particulars: in various formulations.
The nature of the next data set: Cytotoxicity in PBMCs. Particulars: human, PHA-P-activated peripheral blood mononuclear cells (PBMCs). Format: cell-based, human.
A further data set relates to HIV-1 LAI (B-X4). Put plainly: PBMC antiviral assay (RT activity), HIV-1 LAI. Format: cell-based. As to conditions: Human immunodeficiency virus 1, PBMC, 168 h; PHA-P-activated PBMCs, 125 TCID50, day 7, RT activity. How it is done:
as §1

For data set [4], the target named is T1, MN gp120 binding to heparan sulfate (HS) (Human immunodeficiency virus type 1 group M subtype B, UniProt P05877).
T1 construct: MN gp120 (50 μg/ml in 5 mM maleate buffer, pH 6); purchased Immunodiagnostics (Massachusetts, USA)
Put plainly: biochemical. Also on record: species or system HIV-1. How it is done:
For that purpose, CM4 sensorchips were activated with 50 μL of 0.2 M N-ethyl-N’-([…])-carbodiimide (EDC) and 0.05 M N-hydroxy-succimide (NHS) at 5 μL/min. Then soluble CD4 (10 μg/mL in 10 mM acetate buffer, pH 5), streptavidin (200 μg/mL in 10 mM acetate buffer, pH 4.2), mAb 17b (5 μg/mL in 10 mM acetate buffer, pH 5), MN gp120 (50 μg/ml in 5 mM maleate buffer, pH 6) or YU2 gp120 (50μg/mL in 10 mM acetate buffer, pH 4.8) were injected at 5 μL/min over one of the EDC/NHS activated flow cell until levels of 1200 (for sCD4), 700 (for mAb 17b), 3000 (for streptavidin), or 4500 (for gp120s) response units (RU) were achieved. HS (1 mM in phosphate-buffered saline) was biotinylated through its reducing end by reductive amination with 10 mM of biotin-LC-Hydrazine (Pierce) and captured on the streptavidin surface (20 μg/mL in 10 mM Hepes buffer pH 7.4 and 0.3 M NaCl) to a level of 60–80 RU as described. Surfaces were then blocked with 1M ethanolamine (pH 8.5) for 5 minutes.
CD4, mAb 17b and gp120 surfaces were regenerated by 1 min injection of 10 mM HCl and the HS surface was regenerated with a 1 min injection of 0.05% SDS followed by a 3 min injection of 2 M NaCl.

A further data set has as its system HIV-1 Ba-L (B-R5). Put plainly: PBMC antiviral assay (RT activity), HIV-1 Ba-L. The data set is classed as cell-based. Particulars: Human immunodeficiency virus 1, BAL, PBMC, 168 h; PHA-P-activated PBMCs, 125 TCID50, day 7, RT activity. The protocol:
as §1

Another data set concerns HIV-1 98IN017 (C-X4). Kind of data set: PBMC antiviral assay (RT activity), HIV-1 98IN017. As to conditions: Human immunodeficiency virus 1, PBMC, 168 h; PHA-P-activated PBMCs, 125 TCID50, day 7, RT activity. The data set is classed as cell-based. The protocol:
as §1

The term EC50 denotes the concentration giving half of the maximal effect. One may read the CC50 as the concentration giving 50% cytotoxicity. For orientation: IC50 means the point on the concentration scale where inhibition reaches its midpoint. A low value points to inhibition by little substance. For the compound `Oc1cc(O)c2c(c1)O[C@@]1(c3ccc(O)c(O)c3)Oc3cc(O)c4c(c3[C@@H]2[C@H]1O)O[C@H](c1ccc(O)c(O)c1)[C@H](O)[C@H]4c1c(O)cc(O)c2c1O[C@H](c1ccc(O)c(O)c1)[C@H](O)C2` [IND02-trimer, cinnamtannin B1], the EC50 in the data set on HIV-1 92UG029 (A-X4) was 2.3 µM; in [1] (Human immunodeficiency virus 1, PBMC, read-out: EC50 over the panel of strains), 0.8 to 7 µM; in the data set on HIV-1 LAI, 3.4 µg/mL; in the data set with HIV-1 LAI (48 h, mean of triplicate ± SD), 3.9 ± 1.6 µM; with HIV-1 LAI (B-X4), 4.6 ± 3 µM; in the data set on HIV-1 Ba-L (B-R5), 6.9 ± 2 µM. The compound also yielded a concentration giving a half-maximal response (EC50) with HIV-1 98IN017 (C-X4) of 0.8 µM. Further, the “ED50 against a range of clinical isolates from different clades” value in [1] (PBMCs) is 1 to 7 µM. For the same compound, in [2] (HIV-1-infected PBMC cultures, 0.4 to 40 μg/ml (0.46–46.3 μM)), the “Tim-3 expression on CD8+ T cells versus infected control cells” value is listed as “significantly lower expression”. Also, in [2] (HIV-1-infected PBMCs), the “Tim-3 expression on CD4+ T cells versus infected control cells” value is given as “decreased”. The “time over which the compound is stable” value in data set [3] was no less than 6 months. For the same compound, half-maximal cytotoxicity in the data set “Cytotoxicity in PBMCs” (CC50) was put at 23 ± 2 µM. In addition, in data set [4], the IC50 turned out to be 7.5 ± 3.5 µM.

(Values after PMC5082894 (PLoS ONE, 2016).)
